Test results: patent US20200131473A1, “METHOD OF GENERATING 2 CELL-LIKE STEM CELLS” (IFOM FONDAZIONE ISTITUTO FIRC DI ONCOLOGIA MOLECOLARE, priority 2017, published 2020)
“Also recorded” adds a separate entry of the source.

Tests used:
[1] = tested on: E14 mouse ESCs; test: Drop-seq single cell transcriptional profiling of E14 ESCs; assay type: cell-based
Protocol: ESCs from CNTL, APH (6 μM) and APH-ATRi experimental conditions were resuspended in PBS-BSA and processed with a microfluidic device according to the DropSeq Laboratory Protocol V3.1 from McCarroll's Lab website [http://mccarrolllab.com/dropseq/l]. For each condition, 3 distinct aliquots of collected emulsion, each containing 4000 beads underwent reverse transcription (RT) and fragment library preparation using Illumina Nextera XT Library Prep Kit. A distinct barcode was used for each library to allow subsequent demultiplexing of sequencing reads. mRNA sequencing was performed using an Illumina HiSeq2000 instrument, library fragments were sequenced at 50 base pairs (bp) in PE mode. Sequencing reads were aligned to UCSC Mouse Reference Genome version mm10 using STAR (version 2.5.3a), and processed according to DropSeq Alignment Cookbook V1.2 to generate a digital expression matrix of STAMPs (cells) for each experimental condition, which was then furtherly analyzed in the RStudio environment (R version 3.3.3) using Seurat package V2.0 from Satija Lab [http://satijalab.org/seurat/]. Seven-hundred most expressed cells were selected in each condition; genes expressed in less than 3 cells and cells expressing less than 200 genes were pruned from the dataset. Data from CNTL and APH conditions (1399 cells) or CNTL, APH and APH-ATRi conditions (2096 cells) were merged to generate two datasets, which were log normalised and scaled. Expression mean and variance to mean ratio (Log VMR>0.5) were used to estimate data dispersion and select variable genes across the dataset. Respectively 2614 and 2768 genes (in the 2-conditions and 3-conditions datasets) were used in principal component analysis (PCA) to identify the appropriate number of components to include in data modeling. Top 15 components were selected to explain dataset complexity. A shared nearest neighbor (SNN) graph and smart local moving algorithm was used to perform cells clustering; t-SNE (t-stochastic neighbour embedding) analysis was used to reduce (PCA) dimensionality and generate plots of cells distribution.

[2] = tested on: pZscan4-Emerald ESCs; test: FACS analysis of Zscan4-Emerald ESCs (Emerald-GFP positive cells); assay type: cell-based, mouse; settings: for elevated expression of 2C-like specific genes (Zscan4, MERVL) upon APH and HU treatment: inhibitor added under replication stress, flow cytometry and immunoblot
Protocol: All treatments including APH, HU, UV, ATRi, ATMi and Chk1i were added in to fresh ESC medium and the cells were kept in 37° C. and 3% 02 tension for overnight (16-17 hrs) unless mentioned in each particular result section. APH was used at various concentrations ranging from 0.3 uM to 6 uM that is mentioned in each experiment in order to induce mild to acute replication stress response. Similarly, HU was used at 0.1 mM-3 mM. ATMi (KU-55933) and ATRi (VE 822) were used at the concentration of 10 uM and 1 uM respectively. Moreover, Chk1i (UCN-01) at the concentration of 100 nM was used. UV radiation was performed at the dosage ranging from 2 to 10 J/m2. For induction of ETAA1-AAD expression, Dox was used at the concentration of 1 μg/mL for 48 hrs.
ESCs were fixed and permeabilized using Cytoperm/Cytofix kit (BD Biosciences), and subsequently stained for one hour at room temperature with Alexa Fluor® 647 anti-H2AX-Phosphorylated (Ser139) antibody (Biolegend) or P-CHK1-PE conjugated antibody (cell signaling 12268). Cells were washed and acquired on a FACS Calibur instrument or Attune NxT (Thermo Fisher Scientific). For Emerald-GFP acquisition, cells were trypsinized, collected and subsequently acquired without fixation. Cell cycle profiles were acquired after incubation with DAPI (4′,6-diamidino-2-phenylindole) overnight. For Caspase3 FACS analysis after fixation and permeabilization, Cleaved Caspase3 antibody were used for one hr at RT followed by washes and one hr incubation in donkey anti rabbit secondary antibody. […]

[3] = tested on: mESC lines E14 and R1; test: Whole gene expression profiling (microarray) of mESC lines E14 and R1; assay type: cell-based, mouse
Protocol: The quality of total RNA was first assessed using an Agilent Bioanalyzer 2100 (Agilent Technologies, Palo Alto, Calif.). Biotin-labeled cDNA targets were synthesized starting from 150 ng of total RNA. Double stranded cDNA synthesis and related cRNA was performed with GeneChip® WT Plus Kit (Affymetrix, Santa Clara, Calif.). With the same kit was synthesized the sense strand cDNA before to be fragmented and labeled. […] Each eukaryotic GeneChip® probe array contains probe sets for several B. subtilis genes that are absent in the samples analyzed (lys, phe, thr, and dap). This Poly-A RNA Control Kit contains in vitro synthesized, polyadenylated transcripts for these B. subtilis genes that are pre-mixed at staggered concentrations to allow GeneChip® probe array users to assess the overall success of the assay.
Hybridization was performed using the GeneAtlas™ Hybridization, Wash and Stain Kit. […] Targets were diluted in hybridization buffer at a concentration of 0.05 μg/ul, denatured at 99° C. for 5 minutes, incubated at 45° C. for 5 minutes and centrifuged at 5,000 rpm for 1 minute. The Array Strip is then moved to a hybridization tray, which contains the hybridization cocktails. A single Gene 2.1 PEG Array Strip is hybridized with four different biotin-labeled targets. Hybridizations were performed for 20 hours at 48° C. in the GeneAtlas™ Hybridization Station. The Array Strips were washed and stained in the GeneAtlas™ Personal Fluidics Station. At the end of this procedure the array strips were placed into the imaging tray, which contains the Array Holding buffer.
The array strips were imaged using the GeneAtlas™ Imaging Station. Affymetrix GeneAtlas™ Command Console software was used to acquire the Array Strip images and […].
The CAMERA gene set enrichment p-values were calculated using the limma package and the camera function 30.
In the GSVA based enrichment analysis, we used the MsigDB gene sets, and transformed the individual gene expression values into gene set expression values with the GSVA package 32. We calculated the gene set differential expression as in the gene level differential expression analysis, only skipping the RMA normalization step.

| Compound | number of APH-induced 2C-like gene expressing cells (Zscan4d+, Gm8300+) ([1]; APH plus ATRi) | number of RS-induced cells in the newly emerging cluster ([1]; APH plus ATRi) | elevated expression of 2C-like specific genes (Zscan4, MERVL) upon APH and HU treatment [2] | elevated expression of 2C-like specific genes (Zscan4, MERVL) upon APH and HU treatment ([2]; listed as ATR inhibitor) | number of Zscan4-Emerald positive cells ([2]; normal culture condition, ATRi 1 uM, ATMi 10 uM) | APH induced 2C-like genes which reverted their expression level ([3]; 31 out of 43, inhibitor added after APH) [%] | two placenta-related gene categories upon ATR inhibition ([3]; APH plus inhibitor) | DNA repair signaling pathway (geneset enrichment analysis) ([3]; inhibitor added after APH-induced replication stress) | small cell population (cluster 4, 2C-like) in single cell profiling ([1]; E14 ESCs in LIF plus 2i, APH 6 μM) | number of Emerald-GFP positive (Em+) ESCs ([2]; RS inducing agents, dose-dependent, qPCR and FACS) | downregulated genes ([3]; APH treatment, E14 and R1) [genes] | upregulated genes with more than two-fold changes ([3]; APH treatment, E14 and R1) [genes] | DEGs overlapping with totipotency specific genes ([3]; APH treatment, 43 out of 201, compared with published datasets) [%] | two placenta-related gene categories (MSigDB gene-sets analysis) ([3]; APH vs CNTL) |
| --- | --- | --- | --- | --- | --- | --- | --- | --- | --- | --- | --- | --- | --- | --- |
| CNCc1ccc(-c2cc(-c3nc(-c4ccc(S(=O)(=O)C(C)C)cc4)cnc3N)on2)cc1 [VE 822] | marked reduction | significantly reduced | robustly revert | robustly suppress | markedly reduce; also recorded: marked reduction | 72 | robustly suppressed | robust silencing | – | – | – | – | – | – |
| C[C@@]1(CO)[C@H](O)CC[C@@]2(C)[C@H]1CC[C@H]1C[C@@H]3C[C@@]12CC[C@]3(O)CO [APH, aphidicolin] | – | – | – | – | – | – | – | – | significantly increased | significant increase | 21 | 193 | 17 | strong and highly significant enrichment |
